{
  "source": "patent US10870647B2",
  "about": "“Imidazopyridine derivative, method for preparing same, and pharmaceutical composition containing same as active ingredient for preventing or treating cancer” (DAEGU-GYEONGBUK MEDICAL INNOVATION FOUNDATION, priority 2016, dated 2020)",
  "key": {"[1]": {"molecular_target": "T1, scanMAX Kinase assay panel (Homo sapiens, UniProt P07947)", "T1 construct": "purchased DiscoverX", "experiment": "Kinase selectivity, scanMAX Kinase assay panel (DiscoverX), % control at 1 uM", "format": "binding", "conditions": "YES; 1 uM; read-out: Percent Control (%)", "method": "(§1) The following experiment was performed to evaluate the inhibitory activity of the compound of the present invention on more enzymes.\n(§2) Particularly, among the compounds of the present invention, the compounds of Example 1, Example 12 and Example 78 were selected and assigned to DiscoverX to measure the kinase selectivity. The experiment was performed by using scanMAX™ Kinase assay panel.\n(§3) At this time, the concentration of the drug to be treated to the enzyme was adjusted to 1 uM in DMSO, and the control percentage (% control) was determined according to the following Equation 1. [Example Compound−Positive Control/Negative Control−Positive Control]×100 [Equation 1]\n(§4) The enzyme selectivity of the compound of the present invention was judged to be active for the enzyme if the % control was <35 (i.e. less than 35%) for each enzyme."}, "[2]": {"molecular_target": "T2, scanMAX Kinase assay panel (Homo sapiens, UniProt P42336, E542K)", "T2 construct": "purchased DiscoverX", "T2 sequence (P42336 whole entry E542K)": "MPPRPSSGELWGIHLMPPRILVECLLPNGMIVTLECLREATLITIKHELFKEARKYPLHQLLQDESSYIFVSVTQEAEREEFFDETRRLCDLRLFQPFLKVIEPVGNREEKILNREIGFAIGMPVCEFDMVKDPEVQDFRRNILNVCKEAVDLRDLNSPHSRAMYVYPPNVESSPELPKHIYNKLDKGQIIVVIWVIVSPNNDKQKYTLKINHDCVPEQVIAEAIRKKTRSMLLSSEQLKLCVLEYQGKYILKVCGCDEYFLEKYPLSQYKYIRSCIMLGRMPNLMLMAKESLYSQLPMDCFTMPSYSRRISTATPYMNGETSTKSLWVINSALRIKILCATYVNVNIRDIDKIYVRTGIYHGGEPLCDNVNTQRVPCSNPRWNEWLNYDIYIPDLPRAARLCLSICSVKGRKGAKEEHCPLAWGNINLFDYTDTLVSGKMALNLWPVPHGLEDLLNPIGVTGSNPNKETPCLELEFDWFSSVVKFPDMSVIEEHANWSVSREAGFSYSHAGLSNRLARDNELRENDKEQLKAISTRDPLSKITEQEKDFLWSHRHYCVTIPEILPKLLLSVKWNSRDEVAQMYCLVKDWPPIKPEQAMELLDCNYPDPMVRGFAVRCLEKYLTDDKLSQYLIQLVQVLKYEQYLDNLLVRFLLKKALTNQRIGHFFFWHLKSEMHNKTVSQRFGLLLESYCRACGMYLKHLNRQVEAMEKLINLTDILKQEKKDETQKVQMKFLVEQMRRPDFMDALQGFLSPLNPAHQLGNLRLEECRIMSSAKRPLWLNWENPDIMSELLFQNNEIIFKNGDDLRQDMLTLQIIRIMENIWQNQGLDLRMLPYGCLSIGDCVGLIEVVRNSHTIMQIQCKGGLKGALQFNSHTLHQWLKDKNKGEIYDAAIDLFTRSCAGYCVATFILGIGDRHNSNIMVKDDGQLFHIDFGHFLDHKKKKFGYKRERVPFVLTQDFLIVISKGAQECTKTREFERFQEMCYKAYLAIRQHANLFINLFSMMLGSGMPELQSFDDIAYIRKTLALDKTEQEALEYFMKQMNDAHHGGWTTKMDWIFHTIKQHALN", "experiment": "Kinase selectivity, scanMAX Kinase assay panel (DiscoverX), % control at 1 uM", "format": "binding", "conditions": "PIK3CA (E542K); 1 uM; read-out: Percent Control (%)", "method": "as §1, §2, §3, §4"}, "[3]": {"molecular_target": "T3, scanMAX Kinase assay panel (Homo sapiens, UniProt Q13557)", "T3 construct": "purchased DiscoverX", "T3 sequence (Q13557 whole entry)": "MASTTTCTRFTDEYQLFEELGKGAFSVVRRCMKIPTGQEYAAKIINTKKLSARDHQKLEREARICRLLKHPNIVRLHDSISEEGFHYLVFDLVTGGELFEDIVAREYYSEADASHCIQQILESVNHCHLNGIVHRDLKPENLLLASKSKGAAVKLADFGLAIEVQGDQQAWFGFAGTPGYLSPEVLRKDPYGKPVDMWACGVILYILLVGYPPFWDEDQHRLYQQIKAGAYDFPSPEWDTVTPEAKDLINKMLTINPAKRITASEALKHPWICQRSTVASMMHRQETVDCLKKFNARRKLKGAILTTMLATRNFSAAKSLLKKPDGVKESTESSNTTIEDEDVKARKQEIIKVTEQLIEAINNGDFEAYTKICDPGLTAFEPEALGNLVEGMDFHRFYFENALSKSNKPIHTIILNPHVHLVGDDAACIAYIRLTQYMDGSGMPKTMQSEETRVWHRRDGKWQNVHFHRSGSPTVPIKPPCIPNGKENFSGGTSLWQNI", "experiment": "Kinase selectivity, scanMAX Kinase assay panel (DiscoverX), % control at 1 uM", "format": "binding", "conditions": "CAMK2D; 1 uM; read-out: Percent Control (%)", "method": "as §1, §2, §3, §4"}, "[4]": {"molecular_target": "T4, scanMAX Kinase assay panel (Homo sapiens, UniProt Q15418)", "T4 construct": "purchased DiscoverX", "T4 sequence (Q15418 whole entry)": "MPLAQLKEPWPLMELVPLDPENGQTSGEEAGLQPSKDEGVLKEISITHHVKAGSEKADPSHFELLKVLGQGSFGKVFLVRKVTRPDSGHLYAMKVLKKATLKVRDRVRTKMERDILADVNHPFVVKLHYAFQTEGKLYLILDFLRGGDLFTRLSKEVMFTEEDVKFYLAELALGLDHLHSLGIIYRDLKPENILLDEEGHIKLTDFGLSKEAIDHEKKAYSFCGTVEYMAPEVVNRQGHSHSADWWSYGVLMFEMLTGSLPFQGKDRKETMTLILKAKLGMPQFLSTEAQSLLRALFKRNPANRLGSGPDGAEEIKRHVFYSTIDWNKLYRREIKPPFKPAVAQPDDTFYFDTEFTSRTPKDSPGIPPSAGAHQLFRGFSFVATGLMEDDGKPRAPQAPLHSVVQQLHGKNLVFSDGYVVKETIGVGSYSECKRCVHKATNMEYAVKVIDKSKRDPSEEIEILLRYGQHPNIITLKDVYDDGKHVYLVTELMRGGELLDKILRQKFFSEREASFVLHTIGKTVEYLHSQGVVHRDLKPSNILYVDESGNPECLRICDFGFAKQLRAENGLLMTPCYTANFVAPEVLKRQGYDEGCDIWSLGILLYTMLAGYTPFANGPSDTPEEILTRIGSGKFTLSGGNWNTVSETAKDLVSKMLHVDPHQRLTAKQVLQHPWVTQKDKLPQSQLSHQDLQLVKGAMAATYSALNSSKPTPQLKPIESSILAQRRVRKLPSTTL", "experiment": "Kinase selectivity, scanMAX Kinase assay panel (DiscoverX), % control at 1 uM", "format": "binding", "conditions": "1 uM, read-out: Percent Control (%)", "method": "as §1, §2, §3, §4"}, "[5]": {"molecular_target": "T5, scanMAX Kinase assay panel (Homo sapiens, UniProt Q8WTQ7)", "T5 construct": "purchased DiscoverX", "T5 sequence (Q8WTQ7 1-553)": "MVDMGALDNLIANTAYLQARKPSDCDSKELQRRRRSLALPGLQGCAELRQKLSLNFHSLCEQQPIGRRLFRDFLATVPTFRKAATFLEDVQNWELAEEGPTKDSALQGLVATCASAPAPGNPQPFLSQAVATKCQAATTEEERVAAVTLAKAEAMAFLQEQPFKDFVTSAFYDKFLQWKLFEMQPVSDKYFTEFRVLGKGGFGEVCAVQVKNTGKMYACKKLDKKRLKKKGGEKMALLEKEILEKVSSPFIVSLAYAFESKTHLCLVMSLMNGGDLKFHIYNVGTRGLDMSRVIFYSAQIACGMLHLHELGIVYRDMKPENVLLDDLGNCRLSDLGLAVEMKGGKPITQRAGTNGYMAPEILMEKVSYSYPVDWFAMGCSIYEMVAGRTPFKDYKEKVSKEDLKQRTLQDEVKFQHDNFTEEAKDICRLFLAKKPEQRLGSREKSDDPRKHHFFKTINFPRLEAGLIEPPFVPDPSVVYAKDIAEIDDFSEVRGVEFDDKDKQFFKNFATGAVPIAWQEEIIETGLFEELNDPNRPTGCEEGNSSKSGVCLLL", "experiment": "Kinase selectivity, scanMAX Kinase assay panel (DiscoverX), % control at 1 uM", "format": "binding", "conditions": "GRK7; 1 uM; read-out: Percent Control (%)", "method": "as §1, §2, §3, §4"}, "[6]": {"molecular_target": "T6, scanMAX Kinase assay panel (Homo sapiens, UniProt Q9H093)", "T6 construct": "purchased DiscoverX", "T6 sequence (Q9H093 1-628)": "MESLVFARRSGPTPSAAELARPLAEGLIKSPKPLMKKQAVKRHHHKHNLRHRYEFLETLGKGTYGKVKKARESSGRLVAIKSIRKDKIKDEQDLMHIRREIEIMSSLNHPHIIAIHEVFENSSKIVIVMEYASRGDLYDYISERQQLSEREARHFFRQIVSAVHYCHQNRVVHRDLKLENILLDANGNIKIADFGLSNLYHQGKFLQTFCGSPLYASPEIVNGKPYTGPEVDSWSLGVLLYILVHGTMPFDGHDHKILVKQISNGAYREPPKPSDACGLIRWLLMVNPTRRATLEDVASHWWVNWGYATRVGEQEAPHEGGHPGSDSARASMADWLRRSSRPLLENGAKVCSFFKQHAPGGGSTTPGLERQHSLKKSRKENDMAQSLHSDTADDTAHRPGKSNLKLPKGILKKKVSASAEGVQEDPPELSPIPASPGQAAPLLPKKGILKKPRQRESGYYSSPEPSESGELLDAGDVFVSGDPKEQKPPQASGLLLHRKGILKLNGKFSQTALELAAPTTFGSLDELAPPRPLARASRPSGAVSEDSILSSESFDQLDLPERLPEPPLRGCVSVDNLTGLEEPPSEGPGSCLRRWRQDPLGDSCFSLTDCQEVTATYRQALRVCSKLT", "experiment": "Kinase selectivity, scanMAX Kinase assay panel (DiscoverX), % control at 1 uM", "format": "binding", "conditions": "SNARK; 1 uM; read-out: Percent Control (%)", "method": "as §1, §2, §3, §4"}, "[7]": {"molecular_target": "T7, scanMAX Kinase assay panel (Homo sapiens, UniProt Q9HBH9)", "T7 construct": "purchased DiscoverX", "T7 sequence (Q9HBH9 whole entry)": "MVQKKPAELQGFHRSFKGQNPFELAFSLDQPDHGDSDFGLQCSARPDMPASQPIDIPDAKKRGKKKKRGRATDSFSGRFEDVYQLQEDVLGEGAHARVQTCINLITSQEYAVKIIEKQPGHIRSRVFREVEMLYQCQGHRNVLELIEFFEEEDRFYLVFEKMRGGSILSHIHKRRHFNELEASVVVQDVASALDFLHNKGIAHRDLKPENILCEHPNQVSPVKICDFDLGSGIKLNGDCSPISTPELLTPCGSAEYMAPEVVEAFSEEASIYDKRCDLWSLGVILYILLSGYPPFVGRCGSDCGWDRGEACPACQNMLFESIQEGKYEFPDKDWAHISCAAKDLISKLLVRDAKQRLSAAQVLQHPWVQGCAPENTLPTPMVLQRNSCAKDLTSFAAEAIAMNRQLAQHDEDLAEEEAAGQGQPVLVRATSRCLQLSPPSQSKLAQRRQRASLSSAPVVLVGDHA", "experiment": "Kinase selectivity, scanMAX Kinase assay panel (DiscoverX), % control at 1 uM", "format": "binding", "conditions": "MKNK2; 1 uM; read-out: Percent Control (%)", "method": "as §1, §2, §3, §4"}, "M-NFS-60": {"system": "M-NFS-60", "experiment": "Cancer cell proliferation inhibition, CCK-8, 72 hours", "format": "cell-based", "method_in_brief": "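Cells were grown in RPMI with 10% FBS, 0.05 mM 2-mercaptoethanol and human M-CSF, and seeded at 20000 cells/well. Compounds were added from a 3-fold DMSO dilution series topping at 1968 nM (dilution-plate concentration; 11 points including DMSO control). After 72 h at 37 °C, CCK-8 was added for 2 h and OD450 read.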"}},
  "note": "Read-outs that look alike come from different tables or passages of the source.",
  "data": [
    {"molecule": "Cc1ccc(C(=O)Nc2ccc(CN3CCN(C)CC3)c(C(F)(F)F)c2)cc1C#Cc1cnc2c(Nc3cnn(C)c3)cccn12", "note": "[Example 1, 4-methyl-3-((8-((1-methyl-1H-pyrazol-4-yl)amino)imidazo[1,2-a]pyridin-3-yl)ethynyl)-N-(4-((4-methylpiperazin-1-yl)methyl)-3-(trifluoromethyl)phenyl)benzamide]", "values": [
      {"measurement": "remaining binding at 1 µM", "setting": "[1]", "value": 1, "unit": "%"},
      {"measurement": "remaining binding at 1 µM", "setting": "[2]", "value": 100, "unit": "%"},
      {"measurement": "remaining binding at 1 µM", "setting": "[3]", "value": 82, "unit": "%"},
      {"measurement": "remaining binding at 1 µM", "setting": "[4]; RSK1 (Kin.Dom.1-N-terminal)", "value": 60, "unit": "%"},
      {"measurement": "remaining binding at 1 µM", "setting": "[4]; RSK1 (Kin.Dom.2-C-terminal)", "value": 64, "unit": "%"},
      {"measurement": "remaining binding at 1 µM", "setting": "[5]", "value": 81, "unit": "%"},
      {"measurement": "remaining binding at 1 µM", "setting": "[6]", "value": 73, "unit": "%"},
      {"measurement": "remaining binding at 1 µM", "setting": "[7]", "value": 2, "unit": "%"},
      {"measurement": "IC50", "setting": "M-NFS-60", "value": 64.6, "unit": "nM"}
    ]},
    {"molecule": "CCN1CCN(Cc2ccc(NC(=O)c3ccc(C)c(C#Cc4cnc5c(Nc6cnn(C)c6)cccn45)c3)cc2C(F)(F)F)CC1", "note": "[Example 8, N-(4-((4-ethylpiperazin-1-yl)methyl)-3-(trifluoromethyl)phenyl)-4-methyl-3-((8-((1-methyl-1H-pyrazol-4-yl)amino)imidazo[1,2-a]pyridin-3-yl)ethynyl)benzamide]", "values": [
      {"measurement": "IC50", "setting": "M-NFS-60", "value": 34.1, "unit": "nM"}
    ]},
    {"molecule": "Cc1ccc(C(=O)Nc2cccc(C(F)(F)F)c2)cc1C#Cc1cnc2c(Nc3cnn(C4CCNCC4)c3)cccn12", "note": "[Example 11, 4-methyl-3-((8-((1-(piperidin-4-yl)-1H-pyrazol-4-yl)amino)imidazo[1,2-a]pyridin-3-yl)ethynyl)-N-(3-(trifluoromethyl)phenyl)benzamide]", "values": [
      {"measurement": "IC50", "setting": "M-NFS-60", "value": 30.8, "unit": "nM"}
    ]},
    {"molecule": "Cc1cn(-c2cc(NC(=O)c3ccc(C)c(C#Cc4cnc5c(Nc6cnn(C)c6)cccn45)c3)cc(C(F)(F)F)c2)cn1", "note": "[Example 12, 4-methyl-N-(3-(4-methyl-1H-imidazol-1-yl)-5-(trifluoromethyl)phenyl)-3-((8-((1-methyl-1H-pyrazol-4-yl)amino)imidazo[1,2-a]pyridin-3-yl)ethynyl)benzamide]", "values": [
      {"measurement": "remaining binding at 1 µM", "setting": "[1]", "value": 2, "unit": "%"},
      {"measurement": "remaining binding at 1 µM", "setting": "[2]", "value": 100, "unit": "%"},
      {"measurement": "remaining binding at 1 µM", "setting": "[3]", "value": 78, "unit": "%"},
      {"measurement": "remaining binding at 1 µM", "setting": "[4]; RSK1 (Kin.Dom.1-N-terminal)", "value": 79, "unit": "%"},
      {"measurement": "remaining binding at 1 µM", "setting": "[4]; RSK1 (Kin.Dom.2-C-terminal)", "value": 69, "unit": "%"},
      {"measurement": "remaining binding at 1 µM", "setting": "[5]", "value": 100, "unit": "%"},
      {"measurement": "remaining binding at 1 µM", "setting": "[6]", "value": 100, "unit": "%"},
      {"measurement": "remaining binding at 1 µM", "setting": "[7]", "value": 78, "unit": "%"},
      {"measurement": "IC50", "setting": "M-NFS-60", "value": 247, "unit": "nM"}
    ]},
    {"molecule": "Cc1ccc(NC(=O)C2(C(=O)Nc3ccc(F)cc3)CC2)cc1C#Cc1cnc2c(Nc3cnn(C(C)C)c3)cccn12", "note": "[Example 78]", "values": [
      {"measurement": "remaining binding at 1 µM", "setting": "[1]", "value": 100, "unit": "%"},
      {"measurement": "remaining binding at 1 µM", "setting": "[2]", "value": 100, "unit": "%"},
      {"measurement": "remaining binding at 1 µM", "setting": "[3]", "value": 100, "unit": "%"},
      {"measurement": "remaining binding at 1 µM", "setting": "[4]; RSK1 (Kin.Dom.1-N-terminal)", "value": 100, "unit": "%"},
      {"measurement": "remaining binding at 1 µM", "setting": "[4]; RSK1 (Kin.Dom.2-C-terminal)", "value": 95, "unit": "%"},
      {"measurement": "remaining binding at 1 µM", "setting": "[5]", "value": 92, "unit": "%"},
      {"measurement": "remaining binding at 1 µM", "setting": "[6]", "value": 68, "unit": "%"},
      {"measurement": "remaining binding at 1 µM", "setting": "[7]", "value": 100, "unit": "%"},
      {"measurement": "IC50", "setting": "M-NFS-60", "value": 672, "unit": "nM"}
    ]}
  ]
}
